US8673913B2, “SHP-2 phosphatase inhibitor” (Case Western Reserve University, priority 2009, dated 2014)

Experiments:
[1] = molecular target: T1, GST-SHP-1 (Homo sapiens, UniProt P29350); assay: in vitro phosphatase assay, SHP-1; type: biochemical; conditions: for functional specificity SHP-2 vs. SHP-1: phosphatase assays at the indicated concentrations
T1 construct: purchased Biomol International, L.P. (Plymouth Meeting, Pa.)
Description: (§1) Candidate compounds were screened using the in vitro protein tyrosine phosphatase (PTP) assay kit (Sigma, St. Lois, Mo.). SHP-2 PTP domain GST fusion protein purified in house was used as the enzyme and a phospho-peptide corresponding to the surrounding sequence of pTyr^1146 in the insulin receptor (Thr-Arg-Asp-Ile-Tyr[PO3H2]-Glu-Thr-Asp-Tyr-Tyr) were used as the substrate. The assay determines free phosphate generated by dephosphorylation of the PTP substrate using the Malachite Green reagent. Briefly, 0.5 μg of GST-SHP-2 PTP was incubated in 40 μL assay buffer (25 mM Tris-HCl, PH7.4, 50 mM NaCl, 5 mM DTT, and 2.5 mM EDTA) with test compounds at various concentrations or DMSO at room temperature for 30 min. The PTP substrate was then added to a final concentration of 0.2 mM. The system was incubated at 30° C. for 30 min. Finally, 50 μl of Malachite Green solution was added and OD620 was measured after 5 min. In the phosphatase assays for SHP-1, CD45, TC-PTP, PTP-MEG2 (PTPN9), and LAR (PTPRF), procedures were similar, with the exception that GST-SHP-1, GST-CD45 cytoplasmic domain, GST-TC-PTP, GST-PTP-MEG2 PTP domain, and GST-LAR PTP domain purchased from Biomol International, L.P. (Plymouth Meeting, Pa.) were used instead as the enzymes.

[2] = molecular target: T2, GST-TC-PTP (Homo sapiens, UniProt P17706); assay: in vitro phosphatase assay, TC-PTP; type: biochemical; conditions: for inhibition of TC-PTP: FIG. 4
T2 construct: purchased Biomol International, L.P. (Plymouth Meeting, Pa.)
T2 sequence (P17706 1-415): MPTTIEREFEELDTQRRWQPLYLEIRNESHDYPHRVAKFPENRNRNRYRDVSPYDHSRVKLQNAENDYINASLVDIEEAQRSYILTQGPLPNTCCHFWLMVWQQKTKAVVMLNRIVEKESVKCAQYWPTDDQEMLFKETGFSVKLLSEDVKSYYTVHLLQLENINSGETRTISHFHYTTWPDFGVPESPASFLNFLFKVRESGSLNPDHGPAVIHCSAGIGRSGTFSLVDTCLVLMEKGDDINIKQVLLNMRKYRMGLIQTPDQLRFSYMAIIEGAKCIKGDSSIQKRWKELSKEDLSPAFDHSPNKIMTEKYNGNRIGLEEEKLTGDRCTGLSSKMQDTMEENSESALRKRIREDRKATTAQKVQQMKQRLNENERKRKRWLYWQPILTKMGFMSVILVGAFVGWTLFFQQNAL
Description: as §1, with “SHP-2 PTP domain GST fusion protein purified in house was used as the enzyme and a phospho-peptide corresponding to the surrounding sequence of pTyr^1146 in the insulin receptor (Thr-Arg-Asp-Ile-Tyr[PO3H2]-Glu-Thr-Asp-Tyr-Tyr) were used as the substrate.” left out

[3] = test system: Ba/F3 cells; assay: Ba/F3 cell proliferation assay (IL-3, MTS); type: cell-based, murine
Description: To test the effects of the active compounds on IL-3-induced cellular response, Ba/F3, an IL-3 dependent murine pro-B lymphoma cell line, was used for the assay. Ba/F3 cells were seeded into 96-well plates (2×10^4 cells/well) in the RPMI-1640 medium supplemented with 10% fetal bovine serum (FBS), recombinant mouse IL-3 (1 ng/mL), and test compounds ([…]). Three days later, cell number was determined using the MTS cell proliferation kit (Promega Life Science, Madison, Wis.).
To test the effects of the active compounds on SHP-2-mediated cellular proliferation, Ba/F3, an IL-3 dependent hematopoietic cell line, mouse embryonic fibroblasts (MEFs), and H661 lung cancer cell line with SHP-2 activating mutation N58S were used for the assays. Cells were seeded into 96-well plates (2×10^4 cells/well) in the RPMI-1640 (for Ba/F3 cells) or DMEM (for MEFs and H661 cells) medium supplemented with 10% fetal bovine serum (FBS) and test compounds at various concentrations. For the Ba/F3 cell assay, recombinant mouse IL-3 (1 ng/mL) was included in the culture medium. Two days later, cell number was determined using the MTS cell proliferation kit (Promega Life Science, Madison, Wis.).

[4] = molecular target: T3, SHP-2 PTP domain GST fusion protein (Homo sapiens, UniProt Q06124); assay: in vitro protein tyrosine phosphatase assay, SHP-2 (Malachite Green); type: biochemical; design: SHP-2 PTP domain GST fusion protein purified in house was used as the enzyme; made in house; conditions: for inhibition at 100 µM: compound at 100 μM, read-out: inhibition of SHP-2 enzymatic activity
T3 sequence (Q06124 247-517 limits assumed): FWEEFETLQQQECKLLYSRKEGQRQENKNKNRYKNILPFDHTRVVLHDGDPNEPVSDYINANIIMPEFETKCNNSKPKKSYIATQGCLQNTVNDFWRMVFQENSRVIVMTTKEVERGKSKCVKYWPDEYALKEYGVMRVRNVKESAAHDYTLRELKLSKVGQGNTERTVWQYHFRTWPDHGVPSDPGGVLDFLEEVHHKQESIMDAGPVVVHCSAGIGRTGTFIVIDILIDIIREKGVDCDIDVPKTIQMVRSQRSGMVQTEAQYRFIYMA
Description: as §1
Candidate compounds identified by CADD were screened by the in vitro tyrosine phosphatase assay as described in the Experimental Section. The GST-SHP-2 PTP domain fusion protein was incubated with the compounds at room temperature for 30 min before the phospho-peptide substrate was added to the assay systems, allowing compounds to bind to target sites in SHP-2. Each test compound was dissolved in DMSO. Initial concentration of the test compounds was 100 μM. In the experimental assay, DMSO was included as the negative control and sodium orthovanadate (100 μM), a general non-specific tyrosine phosphatase inhibitor, was used as the positive control. From the 165 commercially available compounds tested, we identified 9 compounds that inhibit SHP-2 catalytic activity with various efficiencies (FIG. 3A). […] The inhibitory effects of the compounds were dose-dependent.

T1 sequence (P29350 whole entry): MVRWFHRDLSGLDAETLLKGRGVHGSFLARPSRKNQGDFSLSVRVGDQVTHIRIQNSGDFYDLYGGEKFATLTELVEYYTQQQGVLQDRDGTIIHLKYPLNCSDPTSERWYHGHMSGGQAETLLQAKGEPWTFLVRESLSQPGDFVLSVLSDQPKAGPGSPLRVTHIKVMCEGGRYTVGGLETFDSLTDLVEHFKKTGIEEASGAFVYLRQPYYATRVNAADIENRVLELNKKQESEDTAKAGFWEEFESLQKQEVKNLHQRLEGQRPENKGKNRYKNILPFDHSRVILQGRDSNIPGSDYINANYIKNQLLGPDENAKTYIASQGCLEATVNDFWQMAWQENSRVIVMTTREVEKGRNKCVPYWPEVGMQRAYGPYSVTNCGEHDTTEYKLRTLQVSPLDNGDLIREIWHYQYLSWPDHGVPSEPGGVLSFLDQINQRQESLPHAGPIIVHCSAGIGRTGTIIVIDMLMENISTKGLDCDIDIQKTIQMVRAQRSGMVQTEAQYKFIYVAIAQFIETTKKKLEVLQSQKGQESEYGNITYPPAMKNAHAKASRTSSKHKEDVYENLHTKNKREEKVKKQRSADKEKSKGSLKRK

functional specificity SHP-2 vs. SHP-1 [1]	inhibition of TC-PTP [2]	inhibition at 100 µM [4]	IC50 ([1]; read-out: IC50 SHP1)	IC50 [2]	IC50 ([4]; read-out: IC50 SHP2)	SMILES	acute cytotoxicity [3]	IL-3-stimulated cell growth ([3]; 100 or 200 μM, IL-3 1 ng/mL, 72 hours)	SHP-2 mediated proliferative response to IL-3 ([3]; IL-3 1 ng/mL, 48 hours)	selectivity for SHP-2 compared to other PTPases ([4]; Table 1 and FIG. 10)
selectively inhibited SHP-2 vs. SHP-1	slight inhibition	50%				Cc1cc(C)c2c(c1)[nH]c1nnc(SCC(=O)NCc3cccs3)nc12 [#220]	modest acute cytotoxicity			
selectively inhibited SHP-2 vs. SHP-1	slight inhibition	55%				NS(=O)(=O)c1ccc(CCNC(=O)c2ccc(Cn3c(=S)[nH]c4ccc(Br)cc4c3=O)cc2)cc1 [#216]		greatly decreased		

SMILES	functional specificity SHP-2 vs. SHP-1 [1]	inhibition of TC-PTP [2]	inhibition at 100 µM [4]	IC50 ([1]; read-out: IC50 SHP1)	IC50 [2]	IC50 ([4]; read-out: IC50 SHP2)	acute cytotoxicity [3]	IL-3-stimulated cell growth ([3]; 100 or 200 μM, IL-3 1 ng/mL, 72 hours)	SHP-2 mediated proliferative response to IL-3 ([3]; IL-3 1 ng/mL, 48 hours)	selectivity for SHP-2 compared to other PTPases ([4]; Table 1 and FIG. 10)
Cc1cc(C)c2[nH]c3nc(SCC(=O)Nc4cccc5ccccc45)nnc3c2c1 [#324]	high functional specificity for SHP-2 over SHP-1			37.7 µM	39.9 µM	13.9 µM			inhibit	selectively inhibits SHP-2 compared to other PTPases
